What was measured:
[1] = system: human primary epithelial cells (MEC, normal cells); test: Scrape load/dye transfer GJIC assay, primary epithelial cells (MEC); assay type: cell-based; details: compared to its controls
Experimental: Intercellular communication in many organs is maintained via GJIC. Several GJIC enhancers have been reported; however, an effective clinical drug targeting gap junction is not available at this time. The effect of PQ1 on the GJIC activity in T47D breast cancer cells was tested. […] Conversely, PQ1 has no effect on GJIC activity of human primary epithelial cells (MEC, normal cells) compared to its controls (data not shown). The distance of dye transfer from section cut to the farthest cells with dye was measured. […] MECs have uniform uptake of Lucifer yellow. This is due to the existing high level of gap junction activity of these normal cells.
Gap Junction Activity. For scrape load/dye transfer (SL/DT) assay, cells were grown to 90% confluency on cover slips, dosed with 10, 50, 100 and 200 nM of TCDD for 40 minutes. After that cells were washed three times with PBS. The 2.5 μl of 1% (w/v) Lucifer yellow and 0.75% (w/v) of Rhodamine dextran was mixed and added in the center of the coverslip. Two cuts crossing each other in the center of the coverslip were made. After three minutes, cells were washed three times with PBS and incubated at 37° C. in tissue culture media for 20 minutes. The cells were then washed with PBS three times and fixed in 2.5% paraformaldehyde for 10 minutes. Cells were mounted on a slide, sealed and visualized under a fluorescence microscope at 10× objective.

[2] = system: active caspase 3; test: Western blot of active caspase 3 in T47D cells; assay type: cell-based, human
Experimental: T47D cells were treated with 0, 200 nM, 500 nM and 1 μM PQ1 for 24 hours. Treatment with succinic acid was used as control. Western blot analysis was performed. Nitrocellulose membrane was blotted with the active form of caspase 3 antibodies (16 kDa). Actin acts as loading control. Graphical presentation of three experiments are presented with statistical significance, p<0.05.
Western Blot analysis: Cells were grown in RPMI media until they were 90% confluent in 75 cm2 flasks. Cells were dosed with 200, 500 nM of PQ1 for 24 hours. Cells were harvested with lysis buffer and centrifugated. Cell lysate was run on a 12% SDSpolyacrylamide gel electrophoresis (PAGE) and transferred to nitrocellulose membrane. Membrane was incubated with Caspase Antibody. Western blots were detected by enhanced chemiluminescence detection reagents.
The effect of PQ1 on apoptosis was further examined by detecting the active form of caspase 3. T47D cells were treated with […] PQ1 for 24 hours. Western blot analysis was performed using active form of caspase 3 antibodies. A 200 nM PQ1 causes 1.5-fold increase of active caspase 3 compared to control (FIG. 18). However, a decrease of caspase is observed in higher concentrations, a common effect in apoptotic protein expression. This is due to the cytotoxicity response of the cells.
Western Blot Analysis. Cells were grown in serum supplemented RPMI media until they were 90% confluent in 75 cm^2 flasks. Cells were kept in starving media containing phenol red-free DMEM with 5% charcoal dextran stripped serum, overnight. Cells were dosed with 0, 10, 100, 200 and 500 nM of PQ1 for 24 hours. Cells were washed three times with cold PBS and then were harvested using lysis buffer (20 mM Tris pH 7.5, 0.5 mM EDTA, 0.5 mM EGTA, 0.5% Triton X-100) with 1:1000 dilution of protease inhibitors (Sigma-Aldrich, Saint Louis, Mo.). Cell lysate was sonicated and centrifuged at 13,000 rpm for 30 minutes at 4° C. […] Western blots were detected by enhanced chemiluminescence detection reagents (Pierce, Rockford, Ill., USA).

[3] = system: caspase-3; test: CoCl2 chemical hypoxia in R28 cells, caspase-3 activation by Western blot; assay type: cell-based, rat
Experimental: (A) About 70% confluent retinal R28 cells were treated with 100, 200 and 500 μM CoCl2 for 24 h with or without the pre-treatment of PQ1 (10 μM, 40 min) in a cell culture chamber (5% CO2, room air, 37° C.). Caspase-3 activation was determined by Western blotting in whole cell homogenates (WCH). (B) HIF1α stabilization was measured in the nuclear extracts (NE) after treatment with 500 μM CoCl2 at different time intervals with or without the pretreatment of PQ1. […] Levels of Cx43 and phosphoCx43-Ser368 are measured in WCH. β-Actin is used as a loading control.
Approximately 70% confluent retinal R28 cells were pre-incubated with PQ1 (10 μM, 40 min), followed by CoCl2 treatments at 100, 200 and 500 μM for different time periods in a cell culture chamber (5% CO2, room air, 37° C.). Hypoxia induction was confirmed by testing the hypoxia-inducible factor 1-α (HIF1α) protein expression levels in nuclear extracts by Western blotting.
Western blot. Western blotting was performed as described previously. […]
Next, it was determined whether PQ1 inhibition of gap junctions could prevent retinal neurosensory R28 cells from apoptosis using a chemical (CoCl2)-induced ischemia system as our model. […]

Structure (SMILES): COc1cc(NCCCN)c2nccc(C)c2c1Oc1cccc(C(F)(F)F)c1.O=C(O)CCC(=O)O [PQ1, 6-Methoxy-8-[(3-aminopropyl)amino]-4-methyl-5-(3-trifluoromethylphenyloxy) quinoline succinic acid]
- GJIC activity [1]: no effect
- increase of active caspase 3 ([2]; 200 nM, 24 hours, compared to control): 1.5 fold
- increase in the expression of active caspase 3 ([2]; 200 and 500 nM): 50%
- active caspase 3 ([2]; higher concentrations, 24 hours): decrease
- CoCl2-induced activation of caspase-3 ([3]; PQ1 10 μM 40 min pre-incubation, then 500 μM CoCl2 24 h): blocked the activation of caspase-3 substantially
- activation of caspase-3 ([3]; PQ1 alone): did not cause activation

Source: patent US8809368B2, “Compounds affecting gap junction activity” (Kansas State University Research Foundation, priority 2006, dated 2014)
